# Measurements from patent USRE48461E1, “Modulation of androgen receptor expression” (Ionis Pharmaceuticals, Inc., priority 2012, dated 2021).
# Tests used:
# LMR20 cells = test: MDV3100 IC50 in LMR20 clone compared to parental LnCaP cells; type: cell-based, human
# full-length AR = test: Western blot of full-length AR in MDV3100-resistant C4-2B cells; type: cell-based, human; conditions: C4-2B MR cells (Example 16)
# AR-V7 = test: Western blot of AR-V7 in MDV3100-resistant C4-2B cells; type: cell-based, human; conditions: C4-2B MR cells (Example 16)
# Protocol: ISIS 549372, ISIS 549434, and ISIS 554221 at 1 μM concentration of antisense oligonucleotide were each added to the culture media at 1 μM concentration for free uptake by the cells. After a treatment period of 2 days, cells were harvested in RIPA buffer containing protease inhibitors. The presence of bands for full-length AR, as well as the variant form, AR-V7, was detected by western blot using AR antibody (N-20, Santa Cruz).
# Western analysis of full-length AR, as well as the AR-V7 variant, was also conducted in a manner similar to the assay described above.
# AR full-length mRNA = AR full-length mRNA in CWR22-RV1 cells (RNAiMax, RTS3559); type: cell-based, human; conditions: 6 days
# [1] = test system: V7 splice variant of the AR mRNA; test: AR V7 splice variant mRNA in CWR22-RV1 cells (RT-PCR SYBR Green); type: cell-based, human; conditions: RNAiMax, 6 days
# CWR22-RV1 cells = test: CWR22-RV1 cell proliferation (CellTiter 96); type: cell-based, human; conditions: RNAiMax, 6 days
# [2] = cynomolgus monkey, in vivo, sc, 40 mg/kg
# Protocol: (§1) Prior to the study, the monkeys were kept in quarantine for a 30-day period, during which the animals were observed daily for general health. The monkeys were 2-4 years old and weighed between 2 and 4 kg. Thirteen groups of four randomly assigned male cynomolgus monkeys each were injected subcutaneously with ISIS oligonucleotide or PBS. PBS solution or ISIS oligonucleotides, at a dose of 40 mg/kg, were administered with a loading regimen consisting of four doses on the first week of the study (days 1, 3, 5, and 7), followed by a maintenance regimen consisting of once weekly administration starting on Day 14 (weeks 2 to 6). Subcutaneous injections were performed in clock-wise rotations at 4 sites on the back; one site per dose. The injection sites were delineated by tattoo, while sedated using ketamine, and were separated by a minimum of 3 cm.
# Kidney function was also assessed by urinalysis. Fresh urine from all animals was collected on day 44 using a clean cage pan on wet ice. Food was removed overnight the day before fresh urine collection was done but water was supplied. The total protein and creatinine levels were measured using a Toshiba 120FR NEO automated chemistry analyzer (Toshiba Co., Japan) and the protein to creatinine ratio was calculated.
# [3] = Body and organ weights in cynomolgus monkeys; conditions: cynomolgus monkey, 40 mg/kg s.c.
# [4] = Liver function markers in cynomolgus monkey plasma; conditions: 40 mg/kg s.c., day 44
# Protocol: as §1
# To evaluate the effect of ISIS oligonucleotides on hepatic function, the monkeys were fasted overnight. Approximately, 1.5 mL of blood samples were collected on day 44 from all the study groups. Blood was collected in tubes without anticoagulant for serum separation. The tubes were kept at room temperature for a minimum of 90 min and then centrifuged at 3,000 rpm for 10 min. Levels of various liver function markers were measured using a Toshiba 120FR NEO chemistry analyzer (Toshiba Co., Japan).
# [5] = Full-length oligonucleotide concentration in kidney and liver of cynomolgus monkeys; conditions: cynomolgus monkey, 40 mg/kg subcutaneously
molecule,measurement,setting,value
"CNC(=O)c1ccc(N2C(=S)N(c3ccc(C#N)c(C(F)(F)F)c3)C(=O)C2(C)C)cc1F [MDV3100, 4-(3-(4-cyano-3-(trifluoromethyl)phenyl)-5,5-dimethyl-4-oxo-2-thioxoimidazolidin-1-yl)-2-fluoro-N-methylbenzamide, reference compound]",increase in IC50 of MDV3100 in LMR20 compared to parental LnCaP cells,LMR20 cells,approximately ten-fold increase in IC50
"GTTGATTTAATGGTTG (all phosphorothioate, sugars by position not given here; further chemistry not fully specified) [ISIS 549458]",levels of full-length AR (Western analysis),full-length AR,reduced levels of full-length AR and AR-V7
same,levels of AR-V7 (Western analysis),AR-V7,reduced levels of full-length AR and AR-V7
same,Percent inhibition of AR full-length mRNA,AR full-length mRNA; dose 5.0 nM,41%
same,Percent inhibition of AR full-length mRNA,AR full-length mRNA; dose 16.7 nM,61%
same,Percent inhibition of AR full-length mRNA,AR full-length mRNA; dose 50.0 nM,78%
same,"Percent inhibition of AR splice variant, V7",[1]; dose 5.0 nM,34%
same,"Percent inhibition of AR splice variant, V7",[1]; dose 16.7 nM,58%
same,"Percent inhibition of AR splice variant, V7",[1]; dose 50.0 nM,82%
same,Percent inhibition of cell proliferation,CWR22-RV1 cells; dose 5.0 nM,0%
same,Percent inhibition of cell proliferation,CWR22-RV1 cells; dose 16.7 nM,17%
same,Percent inhibition of cell proliferation,CWR22-RV1 cells; dose 50.0 nM,40%
"TTGATTTAATGGTTGC [ISIS 560131] (MOE and (S)-cEt gapmer chemistry, further chemistry not given here)",Urine protein/creatinine ratio,[2],0.02
same,tolerability: body and organ weights,[3],well tolerated in terms of the body and organ weights of the monkeys
same,tolerability: liver function markers,[4],well tolerated in terms of the liver function markers
same,"Oligonucleotide concentration, Kidney",[5],2029 μg/g tissue
